Assay results as given in US9949972B2, “Combinations of histone deacetylase inhibitors and immunomodulatory drugs” (Acetylon Pharmaceuticals, Inc., priority 2013, dated 2018).

How the values were obtained:
HDAC6 = biological target: T1, HDAC6 (Homo sapiens, UniProt Q9UBN7); assay: HDAC enzyme assays (selectivity); format: biochemical; settings: HDAC6 vs class I HDACs
T1 construct: purchased BPS Biosciences
T1 sequence (Q9UBN7 1-1215): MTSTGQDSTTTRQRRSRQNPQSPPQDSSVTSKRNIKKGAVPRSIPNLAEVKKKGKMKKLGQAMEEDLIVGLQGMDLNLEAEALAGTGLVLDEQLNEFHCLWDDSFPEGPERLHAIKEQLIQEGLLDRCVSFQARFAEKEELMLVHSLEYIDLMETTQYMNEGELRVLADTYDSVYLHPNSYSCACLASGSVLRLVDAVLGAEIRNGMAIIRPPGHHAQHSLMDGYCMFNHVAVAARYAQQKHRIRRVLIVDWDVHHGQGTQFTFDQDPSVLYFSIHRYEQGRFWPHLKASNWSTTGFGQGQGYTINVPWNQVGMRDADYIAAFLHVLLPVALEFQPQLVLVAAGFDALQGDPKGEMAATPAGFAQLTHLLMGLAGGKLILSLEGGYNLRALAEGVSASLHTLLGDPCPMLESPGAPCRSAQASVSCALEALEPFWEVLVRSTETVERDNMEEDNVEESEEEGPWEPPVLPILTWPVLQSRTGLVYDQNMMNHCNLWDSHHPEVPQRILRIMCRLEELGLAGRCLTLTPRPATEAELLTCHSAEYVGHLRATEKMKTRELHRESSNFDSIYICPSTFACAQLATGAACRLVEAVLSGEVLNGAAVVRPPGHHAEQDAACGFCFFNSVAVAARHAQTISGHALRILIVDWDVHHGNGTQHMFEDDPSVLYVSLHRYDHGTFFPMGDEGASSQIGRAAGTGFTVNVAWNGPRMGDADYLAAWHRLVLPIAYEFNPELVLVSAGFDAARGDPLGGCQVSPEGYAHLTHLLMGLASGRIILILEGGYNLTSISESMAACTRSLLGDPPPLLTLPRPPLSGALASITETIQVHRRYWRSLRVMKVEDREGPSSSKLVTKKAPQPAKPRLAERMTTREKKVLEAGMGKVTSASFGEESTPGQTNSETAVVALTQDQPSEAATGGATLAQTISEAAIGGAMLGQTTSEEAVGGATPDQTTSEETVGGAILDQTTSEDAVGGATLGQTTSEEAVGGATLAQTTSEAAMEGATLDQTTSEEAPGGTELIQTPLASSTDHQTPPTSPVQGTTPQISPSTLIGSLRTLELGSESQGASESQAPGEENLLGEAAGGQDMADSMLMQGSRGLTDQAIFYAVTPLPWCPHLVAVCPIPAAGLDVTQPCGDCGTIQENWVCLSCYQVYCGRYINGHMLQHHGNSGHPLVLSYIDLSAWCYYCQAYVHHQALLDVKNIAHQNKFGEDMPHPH
Procedure: Compounds for testing were diluted in DMSO to 50 fold the final concentration and a ten point three fold dilution series was made. The compounds were diluted in assay buffer (50 mM HEPES, pH 7.4, 100 mM KCl, 0.001% Tween-20, 0.05% BSA, 20 μM TCEP) to 6 fold their final concentration. The HDAC enzymes (purchased from BPS Biosciences) were diluted to 1.5 fold their final concentration in assay buffer. The tripeptide substrate and trypsin at 0.05 μM final concentration were diluted in assay buffer at 6 fold their final concentration. The final enzyme concentrations used in these assays were 3.3 ng/ml (HDAC1), 0.2 ng/ml (HDAC2), 0.08 ng/ml (HDAC3) and 2 ng/ml (HDAC6). […] Five μl of compound and 20 μl of enzyme were added to wells of a black, opaque 384 well plate in duplicate. Enzyme and compound were incubated together at room temperature for 10 minutes. Five μl of substrate was added to each well, the plate was shaken for 60 seconds and placed into a Victor 2 microtiter plate reader. The development of fluorescence was monitored for 60 min and the linear rate of the reaction was calculated. The IC50 was determined using Graph Pad Prism by a four parameter curve fit.

[1] = tested on: Mino mantle cell lymphoma cells; assay: Cell cycle inhibition, Mino cells; format: cell-based; settings: 4 days, Compound A or B 2 μM, Lenalidomide 2 μM, Pomalidomide 1 μM
[2] = tested on: Jeko1 mantle cell lymphoma cells; assay: Cell cycle inhibition, Jeko1 cells; format: cell-based; settings: 4 days, Compound B 2 μM, Lenalidomide 2 μM, Pomalidomide 1 μM

| Structure (SMILES) | selectivity for HDAC6 over class I HDAC's (HDAC6) | cell cycle progression [1] | cell cycle progression [2] |
| --- | --- | --- | --- |
| O=C(CCCCCCNC(=O)c1cnc(N(c2ccccc2)c2ccccc2)nc1)NO [Compound A, 2-(diphenylamino)-N-(7-(hydroxyamino)-7-oxoheptyl)pyrimidine-5-carboxamide] | approximately 11 fold | decreased cell cycle progression |  |
| O=C(CCCCCCNC(=O)c1cnc(N(c2ccccc2)c2ccccc2Cl)nc1)NO [Compound B, 2-((2-chlorophenyl)(phenyl)amino)-N-(7-(hydroxyamino)-7-oxoheptyl)pyrimidine-5-carboxamide] |  | decreased cell cycle progression | decreased cell cycle progression |
| O=C(NO)c1cnc(NC2(c3cccc(F)c3)CCCCC2)nc1 [Compound C, 2-((1-(3-fluorophenyl)cyclohexyl)amino)-N-hydroxypyrimidine-5-carboxamide] | more than 300 fold |  |  |
